{
  "source": "patent US20090253658A1",
  "about": "“Fat Accumulation Inhibitor” (priority 2006, published 2009)",
  "key": {"[1]": {"test_system": "adiponectin concentration in blood", "test": "Acceleration of increase and/or inhibition of decrease of adiponectin concentration in blood (high fat feed animal test, ELISA)", "type": "in vivo", "protocol": "Using the sphingomyelin obtained in Example 7, an action of acceleration of increase and/or inhibition of decrease of an adiponectin concentration in blood was verified. An animal test was carried out using 8 animals per group by a group in which a high fat feed blended with sphingomyelin was fed (sphingomyelin diet group) and a group in which a high fat feed not blended with sphingomyelin was fed (high fat diet group). The high fat diet was prepared using a milk casein as a protein source and a butter oil as a lipid source. In the animal test, a feed was provided until the 4th week after rearing, and thereafter the group was divided into 5 groups, and the high fat feed or sphingomyelin-blended high fat feed was provided until the 8th week. Blood collection was carried out on the 4th week and on the 8th week, and an adiponectin concentration in blood was measured using a Mouse/Rat Adiponectin ELISA Kit (manufactured by Otsuka Pharmaceutical Co., Ltd.)."}, "visceral fat": {"test_system": "visceral fat", "test": "Inhibition of visceral fat accumulation (high fat feed animal test, dissection on 8th week)", "type": "in vivo", "protocol": "Using the sphingomyelin obtained in Example 7, an action of inhibition of visceral fat accumulation was verified. An animal test was carried out using 8 animals per group by a group in which a high fat feed blended with sphingomyelin was fed (sphingomyelin diet group) and a group in which a high fat feed not blended with sphingomyelin was fed (high fat diet group). In the animal test, the high fat feed was provided until the 4th week after rearing, and thereafter the group was divided into 5 groups, and the high fat feed or sphingomyelin-blended high fat feed was provided until the 8th week. By carrying out dissection on the 8th week, the amount of visceral fats (mesenteric, peri-testicular, perirenal, posterior abdominal) was measured."}},
  "data": [
    {"substance": "sphingomyelin [Sphingomyelin (Example 7)]", "values": [
      {"measurement": "Adiponectin concentration in blood with the lapse of time (in words)", "setting": "[1]; 4th to 8th week, decreases in the high fat diet group", "result": "increases"},
      {"measurement": "Adiponectin concentration in blood", "setting": "[1]; 4 weeks (before start of sphingomyelin-blended high fat feed)", "result": 10.88, "unit": "µg/mL"},
      {"measurement": "Adiponectin concentration in blood", "setting": "[1]; 8 weeks (sphingomyelin-blended high fat feed from 4th to 8th week)", "result": 15.65, "unit": "µg/mL"},
      {"measurement": "Amount of visceral fat, Mesenteric", "setting": "visceral fat; dissection on the 8th week", "result": 2.19, "unit": "g"},
      {"measurement": "Amount of visceral fat, Perirenal", "setting": "visceral fat; dissection on the 8th week", "result": 0.74, "unit": "g"},
      {"measurement": "Amount of visceral fat, peri-testicular", "setting": "visceral fat; dissection on the 8th week", "result": 3.22, "unit": "g"},
      {"measurement": "Amount of visceral fat, posterior abdominal", "setting": "visceral fat; dissection on the 8th week", "result": 2.11, "unit": "g"},
      {"measurement": "Amount of visceral fat (in words)", "setting": "visceral fat; in comparison with the high fat diet group", "result": "low values"}
    ]}
  ]
}
